The record followed here is patent US20230201221A1, “USE OF TERPENOIDS IN THE TREATMENT OR PREVENTION OF FIBROTIC DISEASES” (ARJIL BIOTECH HOLDING COMPANY LIMITED, priority 2020, published 2023).

Structures are written as SMILES.

Common to all, as to type: in vivo
Experiment [1] concerns TNF-α, IL-1β, IL-6 and TGF-β. Briefly: Bleomycin-induced pulmonary fibrosis in mice: pro-inflammatory cytokines by ELISA. The note with it: extract 1.0 g/kg; BH, DH 50 mg/kg; after BLM challenge; p<0.001. As for the experimental part:
Mice were divided into fifth groups with 5 animals per group according to body weight: control group, BLM group, BLM+DEX group (7.5 mg/kg), BLM+ACH dosage group (50 mg/kg), and BLM+ACM dosage group (25 mg/kg), BLM+ACH dosage group (50 mg/kg), and BLM+ACM dosage group (25 mg/kg) BLM+AH dosage group (50 mg/kg), and BLM+AM dosage group (25 mg/kg) BLM+BH dosage group (50 mg/kg), and BLM+BM dosage group (25 mg/kg) BLM+CH dosage group (50 mg/kg), and BLM+CM dosage group (25 mg/kg) BLM+DH dosage group (50 mg/kg), and BLM+DM dosage group (25 mg/kg) BLM+EH dosage group (50 mg/kg), and BLM+EM dosage group (25 mg/kg) BLM. Pulmonary fibrosis (PF) was established in mice via a single intratracheal administration of BLM at 7.5 mg/kg mg/kg body weight. Different doses of samples were intragastrically administered daily for 21 days after BLM injury, and DEX was used as the positive control. Control and model groups received an equal volume of vehicle (0.9% NaCl) using the same schedule and route of administration. […]
The serum concentration of the pro-inflammatory cytokines (i.e. tumor necrosis factor-α (TNF-α), interleukin-6 (IL-6), and IL-1β) in serum were assessed with relevant enzyme-linked immunosorbent assay (ELISA) kits (Biosource International Inc., Sunnyvale, Calif., USA), based on the manufacturer's instructions.

In experiment [2] the test system is ICR mice. In words: Bleomycin-induced pulmonary fibrosis in mice: lung hydroxyproline content. As to conditions: extract 1.0 g/kg; AH, BH, DH 50 mg/kg; p<0.001. The method, then:
(§1) Mice were divided into fifth groups with 5 animals per group according to body weight: control group, BLM group, BLM+DEX group (7.5 mg/kg), BLM+ACH dosage group (50 mg/kg), and BLM+ACM dosage group (25 mg/kg), BLM+ACH dosage group (50 mg/kg), and BLM+ACM dosage group (25 mg/kg) BLM+AH dosage group (50 mg/kg), and BLM+AM dosage group (25 mg/kg) BLM+BH dosage group (50 mg/kg), and BLM+BM dosage group (25 mg/kg) BLM+CH dosage group (50 mg/kg), and BLM+CM dosage group (25 mg/kg) BLM+DH dosage group (50 mg/kg), and BLM+DM dosage group (25 mg/kg) BLM+EH dosage group (50 mg/kg), and BLM+EM dosage group (25 mg/kg) BLM. Pulmonary fibrosis (PF) was established in mice via a single intratracheal administration of BLM at 7.5 mg/kg mg/kg body weight. Different doses of samples were intragastrically administered daily for 21 days after BLM injury, and DEX was used as the positive control. Control and model groups received an equal volume of vehicle (0.9% NaCl) using the same schedule and route of administration.
The contents of hydroxyproline were analyzed in lung tissue following the instruction of hydroxyproline assay kit (Biosource International Inc., Sunnyvale, Calif., USA). The pulmonary tissues of mice were ground and homogenized with 1 ml of 6 mol/L […] solution, hydrolyzed at 95° C. for 5 hours, and the pH value was adjusted to 6.0-6.8. According to the instructions, the corresponding reagents were added to the reaction system and mixed thoroughly and then incubated for 15 minutes at 60° C. After cooling, the supernatants were collected after centrifuging at 3500 rpm for 10 minutes. The absorbance value of the supernatant from the samples was measured at 550 nm by a spectrophotometer and calculated for the contents of hydroxyproline on each group.

For another experiment, the system named is BALB/c mice. Briefly: Con A (concanavalin A) induced acute hepatitis in BALB/c mice. The note with it: mean ± SEM. As for the experimental part: Male BALB/c mice (7-9 weeks old) were purchased from BioLASCO Taiwan Co., Ltd or National Laboratory Animal Center (NLAC, Taiwan). Animals are housed five per cage with food and water provided ad libitum throughout the experiments. Room temperature is maintained at 23±2° C. with an alternating 12 h light dark cycle. Animals are acclimatized for one week to minimize the effect of stress before the experiments. All experimental protocols involving animals and their care are approved by the Institutional Animal Care and Use Committee (IACUC) in ITRI (ITRI-IACUC-2018-041 and ITRI-IACUC-2018-050; accredited by AAALAC) and are carried out according to the regulations of the Council of Agriculture, Taiwan.
Con A is dissolved in pyrogen free saline at a concentration of 3 mg/mL and intravenously injected at a dose of 15 mg/kg or 20 mg/kg of body weight to induce hepatitis. […] Blood and liver tissues are collected 24 h after Con A treatment (FIG. 11). Serum are stored at […] until analysis.
To assess the level of hepatocellular injury after Con A treatment, serum GPT and GOT levels are measured by Fuji Dri-Chem slides (Fuji, Japan). The serum of the same group is pooled for cytokine assay. Cytokine levels are measured by ProcartaPlex™ immunoassays kit according to manufacturer's instructions. Data are presented as mean f SEM. T test is used to analyze the differences between drug and vehicle treated groups. The difference is regarded statistically significant when p value is less than 0.05.
Liver tissues are fixed in 10% phosphate buffered formaldehyde, embedded in paraffin, and stained with hematoxylin and eosin (H&E) in order to confirm tissue lesions. Tissue lesions are examined microscopically by a veterinary pathologist at BioLASCO Taiwan Co., Ltd. The criteria of severity grading system for all microscopic lesions are graded from 0 to 4 as follows: 0=none; 1=individual cell necrosis; 2=≤30% lobular necrosis; 3=≤60% lobular necrosis; 4=>60% lobular necrosis.

Experiment [3] relates to ICR mice. In words: Bleomycin-induced pulmonary fibrosis in mice: body weight, lung weight, lung index. As for the experimental part:
Specific pathogen-free ICR mice (males) (body weights 18-22 g) were purchased from the BioLASCO Taiwan Co., Ltd. (Taipei, Taiwan). The animals were housed in Plexiglas cages at a constant temperature of 22±1° C. and a relative humidity of 55±5% on a 12 h dark-light cycle for at least 2 weeks before the experiment. Animals were provided food and water ad libitum. All experimental procedures were performed according to the guidelines of the Institutional Animal Ethics Committee, and the protocol was approved by the Committee for the Purpose of Control and Supervision of Experiments on Animals.
as §1
Mouse body weights were recorded daily. Mice were sacrificed on the 21th day using excess chloral hydrate hydrochloride anesthesia. Blood was obtained for ELISA analyses, and whole lungs were removed and weighed. The right lungs were fixed in 10% formalin, dehydrated, and embedded in paraffin. The left lungs were used to determine hydroxyproline. The pulmonary coefficient was calculated using the following equation: lung weight/body weight×100%
1. Group I: control; 2. Group II: mice received single intraperitoneal injection of BLM (7.5 mg/kg BW) 3. Group III: single dose (ACH, 0.5 g/kg) 4. Group IV: Single dose (ACM, 1.0 g/kg) 5. […] Group VII: purified AR101-DS2 (50 mg/kg) 8. Group VIII: purified AR101-DS2 (25 mg/kg) 7. Group VII: purified AR101-DS4 (50 mg/kg) 8. Group VIII: purified AR101-DS4 (25 mg/kg) 7. […] Group VII: purified ARH013-RA1 (50 mg/kg) 8. Group VIII: purified ARH013-RA1 (25 mg/kg)

In another experiment the test system is MPO. In words: Bleomycin-induced pulmonary fibrosis in mice: lung myeloperoxidase (MPO) assay. As to conditions: compared with BLM group, p<0.001. As for the experimental part:
as §1
The pulmonary MPO activity was a reliable index for estimating the infiltration of inflammatory cells in lungs. The lung tissues were homogenized and the MPO levels were detected with the kits according to manufacturer's instruction.

The mark [4] stands for this setting: 25 mg/kg intragastric daily for 21 days after BLM.
The mark [5] stands for this setting: 50 mg/kg intragastric daily for 21 days after BLM.

As for `C=C1C(=O)O[C@H]2/C=C(\C)CC3C=C(CC/C=C(\C)CC[C@H]12)C(=O)O3` (stereo partly shown) [AR100-DS1, Ovatodiolide], the “TNF-α, IL-1β, IL-6 and TGF-β production” value in experiment [1] was “improved TNF-α, IL-1β, IL-6 and TGF-β production”. Moreover, the “hydroxyproline (HP) content in lung tissue” value in the experiment with ICR mice [2] is “reduced lung HP”. The “serum GPT level” value with BALB/c mice (50 mg/kg oral, 24 h after 15 mg/kg Con A, vehicle 368±107, p<0.05) turned out to be 109±25 U/L. The “serum GOT level” value with BALB/c mice (50 mg/kg oral, 24 h after 15 mg/kg Con A, vehicle 410±56) amounted to 261±45 U/L. In addition, in the experiment on BALB/c mice (graded 0 to 4, 24 h after Con A, vehicle 1.4±0.2), the “liver necrosis histopathological score” value is reported as 0.2±0.2. In the experiment on ICR mice [3] (setting [4]), this compound showed a Final body mass of 37.33 ± 0.25 g and a Pulmonary mass of 0.52 ± 0.02 g. In the experiment on ICR mice [3] (setting [5]), this compound had a Final body mass of 39.12 ± 0.30 g and a Pulmonary mass of 0.39 ± 0.01 g. Moreover, the “lung MPO activity” value in the experiment with MPO is listed as “evidently suppressed the MPO activities”.
